# Measured values published in patent US12138256B2, “Treatment of cardiopulmonary disorders” (Bayer Aktiengesellschaft, priority 2021, dated 2024).
# Columns and labels:
# [1] = tested on: PAH minipig model; test: Deposited lung dose (absorbing filters) in PAH minipig model and prediction of human dose and duration of effect; format: in vivo, Göttingen minipig
# Method: The anesthetized thromboxane A2 challenged PAH-minipig model (see experimental part C-2.1) is considered to be the most relevant and sensitive model for the prediction of the human minimal effective and effective doses (MED, ED). To determine effective LDs, experiments in minipigs were repeated with the difference that absorbing filters were attached at the end of the tubes to determine the deposited lung dose. […] Assuming a minimal effective ND of 3 μg/kg (5% reduction in PAP) the minimal effective deposited LD is considered as 0.15 μg/kg (see FIG. 1).
# The resulting lung deposited doses in the minipig of 0.15, 0.5, 1.5 and 5 μg/kg were multiplied by 60 kg to achieve the lung dose in humans. Thus, the FPD reflecting the PAP reduction for a 60 kg human are calculated to be 9, 30, 90 and 300 μg.
# Thus, via a direct up-scaling from minipig, the predictive MED (5% PAP reduction) for a human based on a 60 kg body weight is calculated to be 9 μg LDD, not considering protein binding within the respiratory tract. As a surrogate for unbound concentrations, which are the likely active concentrations in the lung, we considered respective differences in fractions unbound in plasma of minipig and human. This consideration results in a minimum effective lung dose (LD) for a 60 kg participant of 41 μg LDD for the assumed 5% reduction on PAP. Consequently, the predictive minimal human effective dose is in the range from 9 μg LDD to 41 μg LDD based on a 60 kg body weight (see FIG. 2).
# This translation was also conducted for effective doses (effective PAP reduction>five up to 35 percent for longer time periods up to the complete observation period of 4 hrs) based on the relative lung deposited doses in minipigs as listed in Table 2.
# For DPI products, it is assumed that the fine particle dose (FPD) is basically equivalent to the human lung deposited dose.
# With respect to a prediction of the duration of action for human studies comparative example 11 was compared in the PAH minipig model after inhaled application to Ventavis® (=Iloprost, 10 μg/kg nominal dose), which we used as a clinical reference. […] Therefore the duration of action is more than 6 times longer compared to Ventavis in this preclinical animal model.
# In order to generate a human dose estimate, experiments in the PAH minipig model for comparative example 11 were repeated with the difference that absorbing filters were attached at the end of the tubes to determine the deposited lung dose. […] The arithmetic mean of the aerosol fraction deposited on the filters is 5% based on all results of the filter experiments, resulting in relative lung deposited doses of about 0.15 μg/kg (3 μg/kg nominal dose), 0.5 μg/kg (10 μg/kg nominal dose), 1.5 μg/kg (30 μg/kg nominal dose) and 5 μg/kg (100 μg/kg nominal dose). Assuming a minimal effective nominal dose of 3 μg/kg for a 5% reduction in PAP and a mean nebulization efficiency of 5%, the minimal effective deposited lung dose is considered as 0.15 μg/kg based on the PAH minipig model. Therefore, for a human patient of 60 kg body weight a minimal effective lung deposited dose of 9-41 μg, depending on whether or not an effect of different protein binding (see table 2.1.5) is postulated. Considering 100 μg/kg as effective dose in the minipig model, 300-1370 μg lung deposited dose is postulated as effective dose, again depending on the consideration of different interspecies protein binding.
# [2] = tested on: unilateral broncho-occlusion in anesthetized minipigs; test: Unilateral broncho-occlusion minipig model: arterial oxygenation as proxy of VQ-mismatch, intrapulmonary selectivity (C-2.3); format: in vivo; settings: for % decrease delta PAP (maximal hypoxic PAP) / % increase AUCSaO2 (unwanted desaturation effect): mean, n = 4
# Method: These effects were more pronounced 90 min after inhalation of comparative example 11 (second intervention cycles (inhal)). […] Thus, the mean % changes in maximal hypoxic PAP and associated % changes in area under the oxygen saturation curve [AUCSaO2] were compared (see FIG. 65) within the respective group. As reference cycles in each group, we used cycle 3 for the inhaled applications as well as cycle 4 for the i.v. applications.
# [3] = minipig 0.15 μg/kg lung deposited (3 μg/kg nominal dose)
# [4] = minipig 0.50 μg/kg lung deposited (10 μg/kg nominal dose)
# [5] = minipig 1.5 μg/kg lung deposited (30 μg/kg nominal dose)
# [6] = minipig 5.0 μg/kg lung deposited (100 μg/kg nominal dose)
compound,measurement,setting,value
"O=C(O)c1ccc(CCN(CCc2ccccc2OCc2ccc(-c3ccc(C(F)(F)F)cc3)cc2Cl)[C@H]2CCCc3nc(C(=O)O)ccc32)cc1 [comparative example 11, (5S)-5-{[2-(4-carboxyphenyl)ethyl][2-(2-{[3-chloro-4′-(trifluoromethyl)[biphenyl]-4-yl]methoxy}phenyl)ethyl]amino}-5,6,7,8-tetrahydroquinoline-2-carboxylic acid]",minimal effective deposited lung dose,"[1]; 5% reduction in PAP, mean nebulization efficiency 5%, minipig",0.15 µg/kg
same,minimal effective nominal dose (MED),"[1]; 5% reduction in PAP, nebulized liquid solution, minipig",3 µg/kg
same,predictive minimal human effective lung deposited dose,"[1]; 60 kg body weight, 5% PAP reduction, without/with protein binding difference",9 to 41 µg
same,effective lung deposited doses in humans expected from minipig data,[1]; 60 kg human,9 to 1370 µg
same,supposed duration of action in humans,[1]; assumption that duration is comparable between PAH minipig model and humans,at least 6 hours
same,lung deposited dose postulated as effective dose in humans,"[1]; considering 100 μg/kg as effective dose in the minipig model, 60 kg",300 to 1370 µg
same,"Total lung deposited dose in a 60 kg human, interspecies difference in protein binding considered",[1]; [3],41 µg
same,"Total lung deposited dose in a 60 kg human, interspecies difference in protein binding not considered",[1]; [3],9 µg
same,"Total lung deposited dose in a 60 kg human, interspecies difference in protein binding considered",[1]; [4],137 µg
same,"Total lung deposited dose in a 60 kg human, interspecies difference in protein binding not considered",[1]; [4],30 µg
same,"Total lung deposited dose in a 60 kg human, interspecies difference in protein binding considered",[1]; [5],410 µg
same,"Total lung deposited dose in a 60 kg human, interspecies difference in protein binding not considered",[1]; [5],90 µg
same,"Total lung deposited dose in a 60 kg human, interspecies difference in protein binding considered",[1]; [6],1370 µg
same,"Total lung deposited dose in a 60 kg human, interspecies difference in protein binding not considered",[1]; [6],300 µg
same,highest effective dose in the minipig model without systemic side effects (BP reduction),"[1]; nominal dose, inhaled",100 µg/kg
same,time of maximal effects after inhalation,[2]; 100 μg/kg nominal dose inhaled,90 min
same,% decrease delta PAP (maximal hypoxic PAP),"[2]; Inhalation I, Cycle 5",1.8%
same,% increase AUCSaO2 (unwanted desaturation effect),"[2]; Inhalation I, Cycle 5",−18.6%
same,% decrease delta PAP (maximal hypoxic PAP),"[2]; Inhalation II, Cycle 6",−19.6%
same,% increase AUCSaO2 (unwanted desaturation effect),"[2]; Inhalation II, Cycle 6",−39.4%
same,hypoxia-induced increases in mean pulmonary artery pressure (mPAP),[2]; after inhaled (cycle 6) as well as i.v. application (cycles 7 and 8),effectively reduced
same,BP,"[2]; i.v. application, 30 μg/kg and 100 μg/kg",expected drop in BP
same,desaturation area (AUCSaO2),"[2]; inhaled application, 100 μg/kg nominal dose",did not increase desaturation area
same,% decrease delta PAP (maximal hypoxic PAP),[2]; iv Bolus 30 μg,−23.8%
same,% increase AUCSaO2 (unwanted desaturation effect),[2]; iv Bolus 30 μg,48.1%
same,% decrease delta PAP (maximal hypoxic PAP),[2]; iv Bolus 100 μg,−14.3%
same,% increase AUCSaO2 (unwanted desaturation effect),[2]; iv Bolus 100 μg,282.8%
same,desaturation area (AUCSaO2),"[2]; systemic (i.v.) application, 30 and 100 μg/kg",dose dependent increase in desaturation area
